For assay [1], the system named is Staphylococcus aureus. Put plainly: Antibacterial activity against methicillin-resistant Staphylococcus aureus N315 after 24 hrs by two fold serial dilution method. The assay is classed as functional. The following applies: N315, 24 h.
In assay [2] the test system is Staphylococcus aureus. Put plainly: Antibacterial activity against Staphylococcus aureus ATCC25923 after 24 hrs by two fold serial dilution method. The assay is classed as functional. The following applies: ATCC25923, 24 h.
The test system of another assay is Bacillus subtilis. Briefly: Antibacterial activity against Bacillus subtilis ATCC6633 after 24 hrs by two fold serial dilution method. The assay is classed as functional. As to conditions: ATCC6633, 24 h.
A further assay concerns Micrococcus luteus. Briefly: Antibacterial activity against Micrococcus luteus ATCC4698 after 24 hrs by two fold serial dilution method. The following applies: ATCC4698, 24 h. The format is functional.
Assay [3] deals with Escherichia coli. Put plainly: Antibacterial activity against Escherichia coli DH52 after 24 hrs by two fold serial dilution method. The assay is classed as functional. The following applies: DH52, 24 h.
The test system of assay [4] is Escherichia coli. Briefly: Antibacterial activity against Escherichia coli JM109 after 24 hrs by two fold serial dilution method. The format is functional. The following applies: JM109, 24 h.
The next assay deals with Shigella dysenteriae. Put plainly: Antibacterial activity against Shigella dysenteriae after 24 hrs by two fold serial dilution method. The format is functional.
A further assay deals with Pseudomonas aeruginosa. Put plainly: Antibacterial activity against Pseudomonas aeruginosa ATCC27853 after 24 hrs by two fold serial dilution method. The format is functional. As to conditions: ATCC27853, 24 h.
The next assay relates to Bacillus. Put plainly: Antibacterial activity against Bacillus proteus ATCC13315 after 24 hrs by two fold serial dilution method. The format is functional. As to conditions: ATCC13315, 24 h.
The subject of the next assay is Salmonella typhi. Briefly: Antibacterial activity against Bacillus typhi after 24 hrs by two fold serial dilution method. The assay is classed as functional, Salmonella enterica subsp. enterica serovar Typhi. The following applies: Salmonella enterica.
Another assay concerns Candida albicans. Briefly: Antifungal activity against Candida albicans ATCC76615 after 24 hrs by two fold serial dilution method. The following applies: ATCC76615, 24 h. The assay is classed as functional.
The subject of a further assay is Candida. Briefly: Antifungal activity against Candida mycoderma ATCC10231 after 24 hrs by two fold serial dilution method. The format is functional. As to conditions: ATCC10231, 24 h.
The next assay deals with Cyberlindnera jadinii. Briefly: Antifungal activity against Candida utilis ATCC9950 after 24 hrs by two fold serial dilution method. The following applies: Williopsis jadinii, ATCC9950, 24 h. The assay is classed as functional.
Another assay relates to Aspergillus flavus. Put plainly: Antifungal activity against Aspergillus flavus ATCC204304 after 24 hrs by two fold serial dilution method. The assay is classed as functional. The following applies: ATCC204304, 24 h.
In the next assay the test system is Saccharomyces cerevisiae. Briefly: Antifungal activity against Beer yeast ATCC9763 after 24 hrs by two fold serial dilution method. The format is functional. As to conditions: ATCC9763, 24 h.

This is an account of results in ChEMBL document CHEMBL3817825, “Synthesis and biological evaluation of Schiff base-linked imidazolyl naphthalimides as novel potential anti-MRSA agents” (2016).

In general, MIC refers to the lowest concentration found to suppress growth. High values mean weaker potency, low ones greater potency.

Values after ≈ are worked out from the molar mass of the structure shown.

With `CCCCc1nc(Cl)c(/C=N/N2C(=O)c3cccc4c(Br)ccc(c34)C2=O)[nH]1`, the MIC is 560 µM (≈ 257 µg/mL) in the assay on Staphylococcus aureus [1]; 1110 µM (≈ 510 µg/mL) in the assay with Staphylococcus aureus [2]; 560 µM (≈ 257 µg/mL) against Bacillus subtilis; 1110 µM (≈ 510 µg/mL) against Micrococcus luteus; 1110 µM (≈ 510 µg/mL) in the assay on Escherichia coli [3]; 1110 µM (≈ 510 µg/mL) against Escherichia coli [4]. Moreover, the MIC was 0.56 µM (≈ 0.257 µg/mL) against Shigella dysenteriae; 560 µM (≈ 257 µg/mL) against Pseudomonas aeruginosa; 1110 µM (≈ 510 µg/mL) with Bacillus; 1.11 µM (≈ 0.51 µg/mL) in the assay on Salmonella typhi; 1110 µM (≈ 510 µg/mL) in the assay on Candida albicans; 1110 µM (≈ 510 µg/mL) in the assay with Candida. Besides, the MIC amounted to 1110 µM (≈ 510 µg/mL) against Cyberlindnera jadinii, 1110 µM (≈ 510 µg/mL) in the assay on Aspergillus flavus and 140 µM (≈ 64.4 µg/mL) with Saccharomyces cerevisiae.

Consider `CCCCc1nc(Cl)c(/C=N/N2C(=O)c3cccc4c(N5CCOCC5)ccc(c34)C2=O)n1Cc1ccc(C)cc1`, for which the minimal inhibitory concentration (MIC) against Staphylococcus aureus [1] is 450 µM (≈ 257 µg/mL); in the assay with Staphylococcus aureus [2] it was 220 µM (≈ 125 µg/mL); in the assay on Bacillus subtilis, 890 µM (≈ 507 µg/mL); with Micrococcus luteus, 450 µM (≈ 257 µg/mL); against Escherichia coli [3] it was 890 µM (≈ 507 µg/mL); with Escherichia coli [4], 60 µM (≈ 34.2 µg/mL). The MIC against Shigella dysenteriae was determined as 0.11 µM (≈ 0.0627 µg/mL); against Pseudomonas aeruginosa, 450 µM (≈ 257 µg/mL); against Bacillus it was 450 µM (≈ 257 µg/mL); in the assay with Salmonella typhi it was 0.45 µM (≈ 0.257 µg/mL); with Candida albicans it was 450 µM (≈ 257 µg/mL); with Candida it was 900 µM (≈ 513 µg/mL). Also, the MIC came to 110 µM (≈ 62.7 µg/mL) against Cyberlindnera jadinii, 900 µM (≈ 513 µg/mL) with Aspergillus flavus and 450 µM (≈ 257 µg/mL) with Saccharomyces cerevisiae.

As to `CCCCc1nc(Cl)c(/C=N/N2C(=O)c3cccc4c(N5CCOCC5)ccc(c34)C2=O)n1Cc1ccc(Cl)c(Cl)c1`, the minimal inhibitory concentration (MIC) against Staphylococcus aureus [1] was 370 µM (≈ 231 µg/mL); against Staphylococcus aureus [2] it was 740 µM (≈ 462 µg/mL); in the assay with Bacillus subtilis, 370 µM (≈ 231 µg/mL); in the assay with Micrococcus luteus, 370 µM (≈ 231 µg/mL); in the assay on Escherichia coli [3], 180 µM (≈ 112 µg/mL); against Escherichia coli [4], 370 µM (≈ 231 µg/mL). Further, the MIC was determined as 0.74 µM (≈ 0.462 µg/mL) against Shigella dysenteriae; 740 µM (≈ 462 µg/mL) in the assay on Pseudomonas aeruginosa; 180 µM (≈ 112 µg/mL) against Bacillus; 0.74 µM (≈ 0.462 µg/mL) against Salmonella typhi; 370 µM (≈ 231 µg/mL) in the assay on Candida albicans; 370 µM (≈ 231 µg/mL) in the assay on Candida. Besides, the MIC turned out to be 370 µM (≈ 231 µg/mL) in the assay on Cyberlindnera jadinii, 740 µM (≈ 462 µg/mL) against Aspergillus flavus and 180 µM (≈ 112 µg/mL) with Saccharomyces cerevisiae.

For `CCCCCCCn1c(CCCC)nc(Cl)c1/C=N/N1C(=O)c2cccc3c(N4CCOCC4)ccc(c23)C1=O`, the MIC against Staphylococcus aureus [1], in the assay on Staphylococcus aureus [2], in the assay with Bacillus subtilis, against Micrococcus luteus, against Escherichia coli [3] and with Escherichia coli [4] was 450 µM (≈ 254 µg/mL) in each case. For the same compound, the MIC with Shigella dysenteriae came to 0.91 µM (≈ 0.513 µg/mL); against Pseudomonas aeruginosa, 450 µM (≈ 254 µg/mL); in the assay on Bacillus, 450 µM (≈ 254 µg/mL); against Salmonella typhi, 0.45 µM (≈ 0.254 µg/mL); against Candida albicans, 230 µM (≈ 130 µg/mL); in the assay on Candida, 450 µM (≈ 254 µg/mL). Besides, the MIC against Cyberlindnera jadinii, with Aspergillus flavus and in the assay with Saccharomyces cerevisiae was 450 µM (≈ 254 µg/mL) in each case.

For `CCCCc1nc(Cl)c(/C=N/N2C(=O)c3cccc4c(N5CCOCC5)ccc(c34)C2=O)[nH]1`, the MIC against Staphylococcus aureus [1] was determined as 70 µM (≈ 32.6 µg/mL); in the assay on Staphylococcus aureus [2], 270 µM (≈ 126 µg/mL); in the assay on Bacillus subtilis, 550 µM (≈ 256 µg/mL); against Micrococcus luteus, 270 µM (≈ 126 µg/mL); with Escherichia coli [3], 270 µM (≈ 126 µg/mL); against Escherichia coli [4], 270 µM (≈ 126 µg/mL). Also, the minimum inhibitory concentration (MIC) against Shigella dysenteriae is 0.07 µM (≈ 0.0326 µg/mL); against Pseudomonas aeruginosa it was 70 µM (≈ 32.6 µg/mL); with Bacillus, 270 µM (≈ 126 µg/mL); with Salmonella typhi it was 0.27 µM (≈ 0.126 µg/mL); in the assay with Candida albicans, 270 µM (≈ 126 µg/mL); against Candida, 140 µM (≈ 65.2 µg/mL). In addition, the MIC in the assay on Cyberlindnera jadinii came out at 550 µM (≈ 256 µg/mL); in the assay on Aspergillus flavus, 550 µM (≈ 256 µg/mL); against Saccharomyces cerevisiae it was 270 µM (≈ 126 µg/mL).

`CCCCCCCCn1c(CCCC)nc(Cl)c1/C=N/N1C(=O)c2cccc3c(N4CCOCC4)ccc(c23)C1=O`: the MIC is 440 µM (≈ 254 µg/mL) in the assay with Staphylococcus aureus [1]; 220 µM (≈ 127 µg/mL) against Staphylococcus aureus [2]; 440 µM (≈ 254 µg/mL) with Bacillus subtilis; 880 µM (≈ 509 µg/mL) in the assay with Micrococcus luteus; 440 µM (≈ 254 µg/mL) with Escherichia coli [3]; 220 µM (≈ 127 µg/mL) with Escherichia coli [4]. Besides, the MIC against Shigella dysenteriae worked out at 0.88 µM (≈ 0.509 µg/mL); in the assay with Pseudomonas aeruginosa it was 880 µM (≈ 509 µg/mL); against Bacillus, 440 µM (≈ 254 µg/mL); in the assay with Salmonella typhi it was 0.44 µM (≈ 0.254 µg/mL); against Candida albicans, 440 µM (≈ 254 µg/mL); in the assay with Candida, 440 µM (≈ 254 µg/mL). Moreover, the MIC with Cyberlindnera jadinii, with Aspergillus flavus and in the assay with Saccharomyces cerevisiae was 880 µM (≈ 509 µg/mL) throughout.

For `CCn1cc(C(=O)O)c(=O)c2cc(F)c(N3CCNCC3)cc21` [NORFLOXACIN], the MIC in the assay on Staphylococcus aureus [1] is 20 µM (≈ 6.39 µg/mL); in the assay with Staphylococcus aureus [2], 6 µM (≈ 1.92 µg/mL); against Bacillus subtilis, 10 µM (≈ 3.19 µg/mL); against Micrococcus luteus, 6 µM (≈ 1.92 µg/mL); against Escherichia coli [3] it was 3 µM (≈ 0.958 µg/mL); in the assay with Escherichia coli [4], 3 µM (≈ 0.958 µg/mL). For the same compound, the MIC with Shigella dysenteriae was determined as 0.05 µM (≈ 0.016 µg/mL); against Pseudomonas aeruginosa it was 50 µM (≈ 16 µg/mL); in the assay on Bacillus, 20 µM (≈ 6.39 µg/mL).
